Measurements from patent US20100197717A1, “COMBINATION OF A 5HT7 RECEPTOR LIGAND AND AN OPIOID RECEPTOR LIGAND” (priority 2007, published 2010).
Where a name gives a salt, the structure may show the parent alone. Read-outs that look alike come from different tables or passages of the source.

Key:
[1] = biological target: T1, Cloned Human Serotonin Receptor, Subtype 7 (h5HT7) (Homo sapiens, UniProt P34969); test: Radioligand binding 5HT7
T1 construct: purchased PerkinElmer 6120512; host or cells: CHO cells
T1 sequence (P34969 whole entry): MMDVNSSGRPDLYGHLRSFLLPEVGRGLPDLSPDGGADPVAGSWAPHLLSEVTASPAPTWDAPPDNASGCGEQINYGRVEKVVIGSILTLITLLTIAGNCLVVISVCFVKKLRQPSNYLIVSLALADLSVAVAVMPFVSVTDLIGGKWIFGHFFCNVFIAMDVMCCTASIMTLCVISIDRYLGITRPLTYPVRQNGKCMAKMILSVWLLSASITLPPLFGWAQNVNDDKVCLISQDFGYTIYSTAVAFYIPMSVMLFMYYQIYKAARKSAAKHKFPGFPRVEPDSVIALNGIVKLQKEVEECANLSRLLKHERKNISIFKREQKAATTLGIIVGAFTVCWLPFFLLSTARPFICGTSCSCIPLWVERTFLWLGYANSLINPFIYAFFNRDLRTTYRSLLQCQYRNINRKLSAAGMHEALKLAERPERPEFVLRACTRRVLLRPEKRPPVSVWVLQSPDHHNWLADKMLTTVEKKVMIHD
Description: Radioligand binding assays were performed using the Cloned Human Serotonin Receptor, Subtype 7 (h5HT7), expressed in CHO cells, coated on Flashplate (Basic FlashPlate Cat.: SMP200) from PerkinElmer (Cat.: 6120512). The protocol assay was essentially the recommended protocol in the Technical Data Sheet by PerkinEmer Life and Analytical Sciences. The Mass membrane protein/well was typically 12 μg and the Receptor/well was about 9-10 fmoles. The Flashplate were let equilibrate at room temperature for one hour before the addition of the components of the assay mixture. The binding buffer was: 50 mM Tris-HCl, pH 7.4, containing 10 mM MgCl2, 0.5 mM EDTA and 0.5% BSA. The radioligand was [^125I]LSD at a final concentration of 0.82 nM. Nonspecific binding was determined with 50 μM of Clozapine. The assay volume was 25 μl. TopSeal-A were applied onto Flashplate microplates and they were incubated at room temperature for 240 minutes in darkness. The radioactivity were quantified by liquid scintillation spectrophotometry (Wallac 1450 Microbeta Trilux) with a count delay of 4 minutes prior to counting and a counting time of 30 seconds per well. Competition binding data were analyzed by using the LIGAND program (Munson and Rodbard, LIGAND: A versatile, computerized approach for characterization of ligand-binding systems. Anal. Biochem. 107: 220-239, 1980) and assays were performed in triplicate determinations for each point.

5-HT6 = 5-HT6 (Homo sapiens, UniProt P50406); test: 5-HT6 inhibition; assay type: binding; settings: 10^−7M; as dihydrochloride; read-out: 5-HT6 inhib. (10^−7M) (%)
Sequence of 5-HT6 (P50406 whole entry, species assumed): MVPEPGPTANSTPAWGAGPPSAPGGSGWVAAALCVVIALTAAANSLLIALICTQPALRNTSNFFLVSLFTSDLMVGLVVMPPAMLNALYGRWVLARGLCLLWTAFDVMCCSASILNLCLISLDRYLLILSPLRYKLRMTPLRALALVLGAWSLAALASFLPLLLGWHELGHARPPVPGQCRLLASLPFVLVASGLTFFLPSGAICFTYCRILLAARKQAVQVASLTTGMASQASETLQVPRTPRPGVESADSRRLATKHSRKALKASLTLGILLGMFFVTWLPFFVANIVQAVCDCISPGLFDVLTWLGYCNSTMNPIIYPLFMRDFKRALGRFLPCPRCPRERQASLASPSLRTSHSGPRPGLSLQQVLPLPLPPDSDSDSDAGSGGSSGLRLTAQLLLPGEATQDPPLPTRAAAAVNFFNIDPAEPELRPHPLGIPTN

Male CD1 mice [2] = test: Tail Flick Test; assay type: in vivo
Male CD1 mice [3] = settings: day 5; morphine 4 mg/kg alone (vs Non-Tolerant) or + Chemical Example 1 10 mg/kg (vs morphine only); FIG. 12
Description: Briefly, the animals (male CD1 mice) were restrained in a Plexiglas tube and placed on the tail flick apparatus (LI 7100, Letica, S. A., Spain). A noxious beam of light was focussed on the tail, and the tail flick latency was recorded automatically to the nearest 0.1 s. The intensity of the radiant heat source was adjusted to yield baseline latencies between 2 and 3 s; this intensity was never changed and any animal whose baseline latency was outside the pre-established limits was excluded from the experiments. In order to minimise injury in the animals, a cut-off time of 10 s was used. The animals received an s.c. injection of the vehicle (saline), drug or drug combination under study, and tail flick latencies were measured and are measured at 45 min after drug or vehicle administration. Baseline tail flick latencies were recorded after saline/vehicle injection. By comparing to baseline (defined as 0% analgesia) and to a failure of pain reaction/tail flick (defined as 100% analgesia) Percentage of analgesia was determined.
Male CD1 Mice were divided in 2 groups, the group receiving s.c. injections of morphine in high doses to develop tolerance (hereinafter called Tolerants), and the group receiving only vehicle (called Non-Tolerants). […]
The mice were placed 45 minutes after injection in the tail-flick apparatus. The Baseline was determined based on saline injection. […]

Male CD1 mice [4] = settings: day 5, morphine 4 mg/kg alone (vs Non-Tolerant) or + Chemical Example 1 10 mg/kg (vs morphine only)
Description: (§1) The mice were kept on the hot plate for no longer than 450 seconds in order to avoid the development of cutaneous lesions. The vehicle, the active substances and the inventive active substance combination to be tested were administered—sometimes in differing concentrations—by s.c. injection to different groups of mice. 0.5 hours after the administration the animals are put onto the hot plate and the time is measured until they show signs of pain, divided by Fore Paw Licking (FPL), Hind Paw Licking (HPL) and Jumping, to allow conclusions on differentiations of pain types through the different pain symptoms/signs of pain. The analgesic efficacy of the active substances or active substance combination is calculated on the basis of the values obtained for the comparison group of mice to which is only administered the vehicle (baseline). By comparing to baseline (defined as 0% analgesia) and to a failure of pain signs (defined as 100% analgesia) Percentage of analgesia was determined. In some cases based on this calculation and with different concentrations of the active substances or active substance combination ED50 values were determined.
Male CD1 Mice were divided in 2 groups, the group receiving s.c. injections of morphine in high doses to develop tolerance (hereinafter called Tolerants), and the group receiving only vehicle (called Non-Tolerants). The following treatment scheme was followed:
The mice were placed 30 minutes after injection on the hot plate heated to 50° C. The signs of pain shown were divided by Fore Paw Licking (FPL), Hind Paw Licking (HPL) and Jumping and measured/counted. The Baseline was determined based on saline injection. Significance values were determined vs. respective “non tolerant” group, the “Morphine-tolerant group” or the “Morphine-non tolerant group” with *** p<0.001 vs. respective “non tolerant” group, # # # p<0.001 vs. “Morphine-tolerant group” and α α α p<0.001 vs. “Morphine-non tolerant group” (Newman-Keuls Multiple Comparison Test post-ANOVA).

Male CD1 mice [5] = test: animal or person; settings: Mus musculus, sc
Description: Male CD1 mice aged from 6 to 8 weeks old were used in these studies. Animals were housed in groups of five, provided with food and water ad libitum and kept in controlled laboratory conditions with the temperature maintained at 21±1° C. and light in 12 h cycles (on at 07:00 h and off at 19:00 h). Experiments were carried out in a soundproof and air-regulated experimental room. The number of mice ranged from 8 to 16 per group in each individual experiment.
All the compounds were dissolved in physiological saline and administered in a volume of 5 ml/kg of body weight through the subcutaneous (s.c.) route. When compounds were co-administered, they were injected s.c. opposite flanks of the mice. The doses of drugs refer to their salt forms.
The analgesic activity of the inventive active substance combination is determined in male CD1 following and adapting the description in the publication of G. Woolfe and A. D. MacDonald, J. Pharm.
as §1

5HT7 receptor = 5HT7 receptor (Homo sapiens, UniProt P34969); settings: statement in the definitions; cited from earlier work
Sequence of 5HT7 receptor (P34969 whole entry): as the sequence (P34969 whole entry) above

[6] = read-out: 5-HT7 %-Inhib. (10^−6 M)
[7] = read-out: 5-HT7 %-Inhib. (10^−7 M)
[8] = read-out: 5-HT7 %-Inhib. (10^−8 M)

SMILES	inhibition at 1 µM ([1]; read-out: % Inh (10^−6 M)) [%]	inhibition at 0.1 µM ([1]; read-out: % Inh (10^−7 M)) [%]	inhibition at 0.01 µM ([1]; read-out: % Inh (10^−8 M)) [%]	further results
COc1cccc(OC)c1-c1cccc(CCN(C)C)c1 [Chemical Example 13, [2-(2′,6′-Dimethoxy-biphenyl-3-yl)-ethyl]-dimethyl-amine]	105	60.5	54.4	
Cc1nn(C)c(C)c1-c1cccc(CCN(C)C)c1 [Chemical Example 1]		98.6	60.8	inhibition at 0.1 µM (5-HT6): 5.4%; effect on efficacy of a low dose of morphine, tail flick (Male CD1 mice [2]; 1.25, 2.5, 5 or 10 mg/kg s.c. + morphine 2 mg/kg (FIG. 9B)): increases in a dose-dependent manner; analgesic effect per se, tail flick (Male CD1 mice [2]; 1.25, 2.5, 5 or 10 mg/kg s.c. alone (FIG. 9B)): devoid of effect per se
CCCN(CCC)CCc1cccc(-c2ccccc2OC)c1 [Chemical Example 24, [2-(2′-Methoxy-biphenyl-3-yl)-ethyl]-dipropyl-amine]	92.4	37.8	-1.8	
Cc1cccc(C)c1-c1cccc(CCN(C)C)c1 [Chemical Example 9, [2-(2′,6′-Dimethyl-biphenyl-3-yl)-ethyl]-dimethyl-amine]	105	88.9	65.9	
CN1CC[C@]23c4c5ccc(O)c4O[C@H]2[C@@H](O)C=C[C@H]3[C@H]1C5 [morphine]				analgesic effect, tail flick, Tolerant group (Male CD1 mice [3]): significantly reduced; analgesic effect, FPL, Tolerant group (Male CD1 mice [4]; FIG. 10A): reduced; analgesic effect, HPL, Tolerant group (Male CD1 mice [4]; FIG. 10B): reduced; analgesic effect, Jump, Tolerant group (Male CD1 mice [4]; FIG. 11): reduced; ED50 (Male CD1 mice [5]; read-out: ED50, Fore Paw Licking (FPL)): 24 mg/kg; ED50 (Male CD1 mice [5]; read-out: ED50, Hind Paw Licking (HPL)): 9.28 mg/kg; ED50 (Male CD1 mice [5]; read-out: ED50, Jumping): 3.19 mg/kg
CCN(CC)CCc1cccc(-c2c(C)nn(C)c2C)c1 [Chemical Example 3, Diethyl-{2-[3-(1,3,5-trimethyl-1H-pyrazol-4-yl)-phenyl]-ethyl}-amine]	98.1	41.5	4.8	
CCCN(CCC)CCc1cccc(-c2c(C)nn(C)c2C)c1 [Chemical Example 4, Dipropyl-{2-[3-(1,3,5-trimethyl-1H-pyrazol-4-yl)-phenyl]-ethyl}-amine]	90	98.7	48.6	
Cc1nn(C)c(C)c1-c1cccc2c1CC[C@H](N(C)Cc1ccccc1)C2 [Chemical Example F, (2S)-Benzyl-methyl-[5-(1,3,5-trimethyl-1H-pyrazol-4-yl)-1,2,3,4-tetrahydro-naphthalen-2-yl]-amine]				inhibition at 1 µM [1, 6]: 110%; inhibition at 0.1 µM [1, 7]: 44.7%; inhibition at 0.01 µM [1, 8]: 16.3%
COc1ccccc1-c1cccc(CCN(C)C)c1 [Chemical Example 21, [2-(2′-Methoxy-biphenyl-3-yl)-ethyl]-dimethyl-amine]	95.4	69.2	20	
Cc1nn(C)c(C)c1-c1cccc2c1CCC(N(C)C)C2 (stereo not shown) [Chemical Example K, Dimethyl-[5-(1,3,5-trimethyl-1H-pyrazol-4-yl)-1,2,3,4-tetrahydro-naphthalen-2-yl]-amine]				IC50 [1]: 3.9 nM; inhibition at 0.1 µM [1, 7]: 91.3%; inhibition at 0.01 µM [1, 8]: 38.8%
CCCN(CCC)CCc1cccc(-c2c(C)cccc2C)c1 [Chemical Example 12, [2-(2′,6′-Dimethyl-biphenyl-3-yl)-ethyl]-dipropyl-amine]	93.3	92.2	43.8	
CCCN(CCC)C1CCc2cccc(O)c2C1 (stereo not shown) [8-OH-DPAT]				agonist classification on the 5-HT7 receptor (5HT7 receptor): agonist
CCN(CC)CCc1cccc(-c2c(C)cccc2C)c1 [Chemical Example 11, [2-(2′,6′-Dimethyl-biphenyl-3-yl)-ethyl]-diethyl-amine]	98.2	62.3	-13.7	
CN(C)CCc1cccc(-c2cnn(C)c2)c1 [Chemical Example 17, Dimethyl-{2-[3-(1-methyl-1H-pyrazol-4-yl)-phenyl]-ethyl}-amine]	46	16.9	-1	
Cc1cccc(S(=O)(=O)N(C)[C@H](C)CCN2CCC(C)CC2)c1.Cl [SB-258719, (R)-3,N-Dimethyl-N-(1-methyl-3-(4-methylpiperidin-1-yl)propyl)benzene sulfonamide hydrochloride]				change in the morphine effect, tail flick (Male CD1 mice [2]; SB-258719 10 mg/kg + varying doses of morphine s.c.): did not produce any significant change; effect on potenciation of morphine analgesia exerted by Chemical Example 1, tail flick (Male CD1 mice [2]; morphine 2 mg/kg + Chemical Example 1 10 mg/kg + SB-258719 10 mg/kg s.c. (FIG. 9C)): reverted
CN[C@H]1CCc2c(cccc2-c2c(C)nn(C)c2C)C1 [Chemical Example H, (2S)-Methyl-[5-(1,3,5-trimethyl-1H-pyrazol-4-yl)-1,2,3,4-tetrahydro-naphthalen-2-yl]-amine hydrochloride]				IC50 [1]: 2.3 nM; inhibition at 1 µM [1, 6]: 98.1%; inhibition at 0.1 µM [1, 7]: 97.8%; inhibition at 0.01 µM [1, 8]: 86.1%
Cc1nn(C)c(C)c1-c1cccc2c1CC[C@@H](N(C)C)C2 [Chemical Example J, (2R)-Dimethyl-[5-(1,3,5-trimethyl-1H-pyrazol-4-yl)-1,2,3,4-tetrahydro-naphthalen-2-yl]-amine hydrochloride]				inhibition at 1 µM [1, 6]: 59.6%; inhibition at 0.1 µM [1, 7]: 9.6%; inhibition at 0.01 µM [1, 8]: -1.8%
